According to ChEMBL document CHEMBL1156093, “Synthesis and biological activity of dialkylphosphocholines” (Bioorg Med Chem Lett, 2009):
pIC50: −log10 of the molar value. In brackets after ≈: the same amount, converted by molar mass.

Key:
Acanthamoeba lugdunensis = experiment: Antiprotozoal activity against Acanthamoeba lugdunensis; format: functional
Candida albicans = experiment: Antifungal activity against Candida albicans; format: functional
HFL1 = experiment: Cytotoxicity against human HFL1 cells; format: cell-based
HeLa = experiment: Cytotoxicity against human HeLa cells; format: functional, cell-based

CCCCCCCCCCCCOP(=O)([O-])OCC[N+](C)(C)CCCCCCCCCC
MTC (Acanthamoeba lugdunensis): >400 µM
MFC (Candida albicans): 9.7 µM (≈ 4.63 µg/mL)
pIC50 (HFL1): 4.23
pIC50 (HeLa): 3.88

CCCCCCCCCCCCCCOP(=O)([O-])OCC[N+](C)(C)CCCCCCCC
MTC (Acanthamoeba lugdunensis): >400 µM
MFC (Candida albicans): 19.3 µM (≈ 9.22 µg/mL)

CCCCCCCCCCCC[N+](C)(C)CCCCCCOP(=O)([O-])OCCCCCCCCCC
MTC (Acanthamoeba lugdunensis): >400 µM
MFC (Candida albicans): 34.8 µM (≈ 18.6 µg/mL)

CCCCCCCCCCCC[N+](C)(C)CCCCOP(=O)([O-])OCCCCCCCCCC
MTC (Acanthamoeba lugdunensis): 200 µM
MFC (Candida albicans): 18.6 µM (≈ 9.41 µg/mL)
pIC50 (HFL1): 4.02
pIC50 (HeLa): 3.83

CCCCCCCCCCOP(=O)([O-])OCC[N+](C)(C)CCCCCCCCCC
MTC (Acanthamoeba lugdunensis): 25 µM
MFC (Candida albicans): 20.5 µM (≈ 9.22 µg/mL)

CCCCCCCCCCCCCCCCCCCC[N+](C)(C)CCOP(=O)([O-])OCC
MTC (Acanthamoeba lugdunensis): >400 µM
MFC (Candida albicans): 1240 µM (≈ 592 µg/mL)

CCCCCCCCCCCCCC[N+](C)(C)CCOP(=O)([O-])OCCCCCCCC
MTC (Acanthamoeba lugdunensis): >400 µM
MFC (Candida albicans): 9.7 µM (≈ 4.63 µg/mL)

CCCCCCCCCCCC[N+](C)(C)CCCOP(=O)([O-])OCCCCCCCCCC
MTC (Acanthamoeba lugdunensis): 100 µM
MFC (Candida albicans): 9.4 µM (≈ 4.62 µg/mL)
pIC50 (HFL1): 4.24
pIC50 (HeLa): 3.95

CCCCCCCCCCCCCCCC[N+](C)(C)CCOP(=O)([O-])OCCCCCC
MTC (Acanthamoeba lugdunensis): >400 µM
MFC (Candida albicans): 19.3 µM (≈ 9.22 µg/mL)
pIC50 (HFL1): 3.96
pIC50 (HeLa): 3.77

CCCCCCCCCCCCCCCCCCCCOP(=O)([O-])OCC[N+](C)(C)CC
MTC (Acanthamoeba lugdunensis): >400 µM
MFC (Candida albicans): 619 µM (≈ 296 µg/mL)
pIC50 (HFL1): 4.57
pIC50 (HeLa): 4.69

CCCCCCCCCC[N+](C)(C)CC[N+](C)(C)CCCCCCCCCC.[Br-].[Br-]
MTC (Acanthamoeba lugdunensis): 200 µM
MFC (Candida albicans): 17.5 µM

CCCCCCCCCCCCCCCCOP(=O)([O-])OCC[N+](C)(C)CCCCCC
MTC (Acanthamoeba lugdunensis): >400 µM
MFC (Candida albicans): 77.4 µM (≈ 37 µg/mL)

CCCCCCCCCCCC[N+](C)(C)CCOP(=O)([O-])OCCCCCCCCCC
MTC (Acanthamoeba lugdunensis): >400 µM
MFC (Candida albicans): 19.3 µM (≈ 9.22 µg/mL)
pIC50 (HFL1): 4.36
pIC50 (HeLa): 3.93

CCCCCCCCCCCCCCCCCCOP(=O)([O-])OCC[N+](C)(C)CCCC
MTC (Acanthamoeba lugdunensis): >400 µM
MFC (Candida albicans): 19.3 µM (≈ 9.22 µg/mL)
pIC50 (HFL1): 3.95
pIC50 (HeLa): 3.79

CCCCCCCCCCCC[N+](C)(C)CCCCCCCCCCOP(=O)([O-])OCCCCCCCCCC
MTC (Acanthamoeba lugdunensis): >400 µM
MFC (Candida albicans): 8100 µM (≈ 4780 µg/mL)

CCCCCCCCCCCCCCCCCC[N+](C)(C)CCOP(=O)([O-])OCCCC
MTC (Acanthamoeba lugdunensis): >400 µM
MFC (Candida albicans): 9.7 µM (≈ 4.63 µg/mL)

CCCCCCCCCCCCCCCCOP(=O)([O-])OCC[N+](C)(C)C [MILTEFOSINE]
MTC (Acanthamoeba lugdunensis): 400 µM
MFC (Candida albicans): 4 µM (≈ 1.63 µg/mL)
pIC50 (HFL1): 3.69
pIC50 (HeLa): 3.89
